What all share (format): cell-based
In one experiment the target is T1, CFTR ΔF508 mutant (Homo sapiens, UniProt P13569, DEL508-508).
T1 construct: expressed in transfected cells; host or cells: CFBE41o- cells transduced with adenoviral vectors
Nature of the experiment: YFP-halide influx assay for the CFTR-ΔF508 mutation. The conditions noted are these: CFBE41o- cells expressing CFTR ΔF508 and YFP reporter, forskolin 10.67 μM; for EC50: (1-F/F0) vs concentration. The essentials: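 CFBE41o- cells were adenovirally transduced with CFTR ΔF508 and YFP H148Q/I152L/F47L, then corrected 24 h at 27 °C or with a CFTR modulator 24 h at 37 °C. Iodide-induced quench was recorded over 2 min. EC50 was derived from 1-F/F0 (36 s vs pre-injection) plotted against compound concentration.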

The next experiment addresses T2, CFTR ΔF508 (Homo sapiens, UniProt P13569, DEL508-508).
T2 construct: bronchial epithelial cells isolated from CF patients homozygous for the CFTR ΔF508 mutation; host or cells: primary human bronchial epithelial cells (hAEC-CF) from CF patients homozygous for ΔF508, pre-treated with the corrector VX809 or GLPG2222
Nature of the experiment: TECC assay in CFTR ΔF508, primary bronchial epithelial cells. The conditions noted are these: bronchial epithelial cells from CF patients homozygous for ΔF508, treated with 3 μM VX809 or 0.15 μM GLPG2222; increase in Isc after forskolin. The method, then: The TECC (Transepithelial Clamp Circuit, EP-design) assay measures the functionality of the cystic fibrosis Transmembrane Conductance regulator (CFTR) by measuring the short circuit current (ISC) generated over the basolateral and apical membrane of lung epithelial cells. In TECC the transepithelial potential PD and transepithelial resistance (Rt) are measured in an open circuit and transformed to ISC using Ohm's law. 24 Wells can be measured simultaneously allowing a higher throughput compared to Ussing chambers.
For this purpose, bronchial epithelial cells isolated from CF patients homozygous for the CFTR ΔF508 mutation (hAEC-CF, McGill, UNC) are plated on type IV collagen-coated Transwell® supports (Costar). Human airway epithelia are generated by provision of an air liquid interface for 21 days to form well-differentiated polarized cultures that resemble in vivo pseudo-stratified ciliated epithelium (Fulcher, M. L., Gabriel, S., Burns, K. A., Yankaskas, J. R., Randell, S. H., 2005. Well-differentiated human airway epithelial cell cultures. Methods Mol. Med. 107, 183-206). […]
When subjected to this protocol, the following values were obtained. The difference between ΔIsc measured as DMSO (baseline), and the ΔIsc measured with the compound tested.

The next experiment deals with T3, CFTR G551D mutant (Homo sapiens, UniProt P13569, G551D).
T3 construct: expressed in transfected cells; host or cells: HEK293 cells, reverse-transfected with plasmid vectors
T3 sequence (P13569 whole entry G551D): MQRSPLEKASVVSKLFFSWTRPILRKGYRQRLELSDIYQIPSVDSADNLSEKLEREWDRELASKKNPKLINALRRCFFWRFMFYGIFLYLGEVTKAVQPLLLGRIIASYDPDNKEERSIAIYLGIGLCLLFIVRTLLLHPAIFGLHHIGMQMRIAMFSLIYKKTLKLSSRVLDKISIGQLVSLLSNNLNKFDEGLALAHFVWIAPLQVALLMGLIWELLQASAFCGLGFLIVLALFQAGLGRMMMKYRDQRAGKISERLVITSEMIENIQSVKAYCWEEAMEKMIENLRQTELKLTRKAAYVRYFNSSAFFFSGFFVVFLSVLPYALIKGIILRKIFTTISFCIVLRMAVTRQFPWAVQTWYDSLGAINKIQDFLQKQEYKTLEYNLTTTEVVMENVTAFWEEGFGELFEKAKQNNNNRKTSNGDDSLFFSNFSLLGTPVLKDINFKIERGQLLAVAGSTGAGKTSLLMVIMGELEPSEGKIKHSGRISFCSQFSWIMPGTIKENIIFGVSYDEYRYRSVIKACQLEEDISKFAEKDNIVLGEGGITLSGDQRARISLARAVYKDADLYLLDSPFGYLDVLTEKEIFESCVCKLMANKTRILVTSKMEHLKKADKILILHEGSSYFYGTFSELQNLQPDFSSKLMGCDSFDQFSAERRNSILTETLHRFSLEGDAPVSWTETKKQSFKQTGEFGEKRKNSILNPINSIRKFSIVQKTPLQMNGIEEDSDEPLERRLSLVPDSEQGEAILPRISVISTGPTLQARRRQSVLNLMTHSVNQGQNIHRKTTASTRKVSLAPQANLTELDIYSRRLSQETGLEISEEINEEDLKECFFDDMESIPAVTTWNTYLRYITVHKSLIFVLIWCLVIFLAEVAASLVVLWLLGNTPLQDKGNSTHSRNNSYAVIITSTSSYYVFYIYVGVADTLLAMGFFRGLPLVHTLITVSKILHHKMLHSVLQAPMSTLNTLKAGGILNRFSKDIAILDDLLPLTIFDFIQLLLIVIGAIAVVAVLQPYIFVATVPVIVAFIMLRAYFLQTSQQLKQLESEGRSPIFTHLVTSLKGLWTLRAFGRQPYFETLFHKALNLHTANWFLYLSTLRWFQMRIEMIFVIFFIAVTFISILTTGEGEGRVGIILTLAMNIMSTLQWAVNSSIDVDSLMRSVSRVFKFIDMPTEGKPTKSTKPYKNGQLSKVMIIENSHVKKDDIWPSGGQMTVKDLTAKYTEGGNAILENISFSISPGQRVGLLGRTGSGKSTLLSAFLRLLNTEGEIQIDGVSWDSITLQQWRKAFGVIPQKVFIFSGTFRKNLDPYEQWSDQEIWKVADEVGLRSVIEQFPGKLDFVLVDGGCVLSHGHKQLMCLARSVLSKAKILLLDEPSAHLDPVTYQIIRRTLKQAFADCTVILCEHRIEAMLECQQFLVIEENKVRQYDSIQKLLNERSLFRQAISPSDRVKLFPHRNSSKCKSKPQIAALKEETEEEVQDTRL
Nature of the experiment: YFP-halide influx assay for the CFTR-G551D mutation. The note with it: HEK293 cells expressing CFTR G551D and YFP reporter; forskolin 10.67 μM. The text has this:
(§1) The YFP halide influx assay measured the functionality of the cystic fibrosis Transmembrane Conductance regulator (CFTR) channels. The assay was used to evaluate the capacity of compounds to increase the channel opening of existing mutant CFTR channels in the membrane. It makes use of the observation that the yellow fluorescent protein (YFP) variant YFP H148Q, I152L, F47L has its fluorescence substantially quenched by halide ions like Cl^− and I^− (Galietta, L. J. V., Haggie, P. M., Verkman, A. S., 2001. Green fluorescent protein-based halide indicators with improved chloride and iodide affinities. FEBS Lett. 499, 220-224. doi:10.1016/S0014-5793(01)02561-3).
(§2) For this purpose, HEK293-cells were seeded in 96 well plates. During seeding, the cells were reverse-transfected with plasmid vectors that direct the expression of the CFTR G551D mutant and of the YFP reporter. Cells were incubated at 37° C., 5% CO2 for 24 hours so as to allow for sufficient expression of the CFTR protein.
(§3) The I^−-induced quenching of fluorescence was recorded immediately after injection of I^− for 7 seconds. The capacity of a compound to increase the channel opening was directly correlated with the decrease in fluorescence, and was expressed as (1-(fluorescence after 7 seconds (F)/fluorescence before injection (F0))) and an EC50 was derived from a (1−F/F0) vs compound concentration plot.

The target of another experiment is T4, CFTR-G178R (Homo sapiens, UniProt P13569, G178R).
T4 construct: expressed in transfected cells; HEK293 with plasmid vectors inferred from the G551D protocol, to which the assay is called similar
T4 sequence (P13569 whole entry G178R): as the sequence (P13569 whole entry G551D) above, with G178R, D551G counted along it
Nature of the experiment: YFP-halide influx assay for the CFTR-G178R.
Text: as §1, §2, §3
(§4) Similar YHA assays were developed for other channel gating defective or channel conductance defective CFTR mutants to determine effect of compound on channel activity. Examples of mutants are G178R, G1349D, S549N, R117H, R334W. This assay is also used for additional class I CFTR mutants, including G542X, W1282X; class II mutants including N1303K, and for class III mutants including S1251N; or wild-type CFTR.

The target in the next experiment is T5, CFTR-R117H (Homo sapiens, UniProt P13569, R117H).
T5 construct: expressed in transfected cells; HEK293 with plasmid vectors inferred from the G551D protocol, to which the assay is called similar
T5 sequence (P13569 whole entry R117H): as the sequence (P13569 whole entry G551D) above, with R117H, D551G counted along it
Nature of the experiment: YFP-halide influx assay for the CFTR-R117H.
Text: as §1, §2, §3, §4

For the next experiment, the target named is T6, CFTR-S549N (Homo sapiens, UniProt P13569, S549N).
T6 construct: expressed in transfected cells; HEK293 with plasmid vectors inferred from the G551D protocol, to which the assay is called similar
T6 sequence (P13569 whole entry S549N): as the sequence (P13569 whole entry G551D) above, with S549N, D551G counted along it
Nature of the experiment: YFP-halide influx assay for the CFTR-S549N.
Text: as §1, §2, §3, §4

A further experiment deals with T7, CFTR-G1349D (Homo sapiens, UniProt P13569, G1349D).
T7 construct: expressed in transfected cells; HEK293 with plasmid vectors inferred from the G551D protocol, to which the assay is called similar
T7 sequence (P13569 whole entry G1349D): as the sequence (P13569 whole entry G551D) above, with D551G, G1349D counted along it
Nature of the experiment: YFP-halide influx assay for the CFTR-G1349D.
Text: as §1, §2, §3, §4

T1 sequence (P13569 with tags, fused parts or gaps DEL508-508): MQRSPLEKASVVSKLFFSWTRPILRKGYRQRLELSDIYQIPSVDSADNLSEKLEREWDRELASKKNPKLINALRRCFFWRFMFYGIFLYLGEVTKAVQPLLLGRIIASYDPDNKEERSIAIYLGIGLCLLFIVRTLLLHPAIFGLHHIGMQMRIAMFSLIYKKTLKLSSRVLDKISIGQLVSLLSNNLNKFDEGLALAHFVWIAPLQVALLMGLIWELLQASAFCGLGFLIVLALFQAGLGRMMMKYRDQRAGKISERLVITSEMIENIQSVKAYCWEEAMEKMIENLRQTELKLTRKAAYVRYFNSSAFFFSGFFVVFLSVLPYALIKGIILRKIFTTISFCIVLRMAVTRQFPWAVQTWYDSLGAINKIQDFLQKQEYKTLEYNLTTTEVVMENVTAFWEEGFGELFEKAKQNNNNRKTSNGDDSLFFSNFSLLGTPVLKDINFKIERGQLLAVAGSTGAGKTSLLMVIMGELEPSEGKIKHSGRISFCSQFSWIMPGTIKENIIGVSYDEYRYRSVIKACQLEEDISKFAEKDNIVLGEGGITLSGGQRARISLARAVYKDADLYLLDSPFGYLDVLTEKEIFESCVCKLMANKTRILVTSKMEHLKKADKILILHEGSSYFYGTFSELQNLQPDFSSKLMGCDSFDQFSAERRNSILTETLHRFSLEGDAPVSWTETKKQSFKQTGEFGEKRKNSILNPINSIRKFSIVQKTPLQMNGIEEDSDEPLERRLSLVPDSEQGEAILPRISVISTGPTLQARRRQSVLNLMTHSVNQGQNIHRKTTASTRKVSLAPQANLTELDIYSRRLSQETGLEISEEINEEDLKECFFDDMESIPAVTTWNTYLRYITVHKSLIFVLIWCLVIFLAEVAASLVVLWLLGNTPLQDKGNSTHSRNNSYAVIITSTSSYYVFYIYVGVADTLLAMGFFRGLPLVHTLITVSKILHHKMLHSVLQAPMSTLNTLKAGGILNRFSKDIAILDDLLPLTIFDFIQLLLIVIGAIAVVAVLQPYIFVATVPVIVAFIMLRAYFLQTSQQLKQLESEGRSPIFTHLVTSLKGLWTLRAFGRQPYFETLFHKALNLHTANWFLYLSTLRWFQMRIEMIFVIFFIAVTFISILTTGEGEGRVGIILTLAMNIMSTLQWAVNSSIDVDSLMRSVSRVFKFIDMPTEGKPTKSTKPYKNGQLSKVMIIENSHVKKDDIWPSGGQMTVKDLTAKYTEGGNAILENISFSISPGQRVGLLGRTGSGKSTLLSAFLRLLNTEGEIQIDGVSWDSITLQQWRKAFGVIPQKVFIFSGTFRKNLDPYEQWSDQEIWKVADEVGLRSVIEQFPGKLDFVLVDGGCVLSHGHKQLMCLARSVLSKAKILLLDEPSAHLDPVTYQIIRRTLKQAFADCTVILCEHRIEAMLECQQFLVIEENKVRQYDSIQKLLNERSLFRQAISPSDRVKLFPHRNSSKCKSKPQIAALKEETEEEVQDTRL
T2 sequence (P13569 with tags, fused parts or gaps DEL508-508): as above

Take `Nc1cc(S(=O)(=O)c2ccc(OC(F)(F)F)cc2)cnc1-c1nnc(C(O)C(F)(F)F)o1` (stereo not drawn) [Compound 4, 1-(5-{3-amino-5-[4-(trifluoromethoxy)benzene-1-sulfonyl]pyridin-2-yl}-1,3,4-oxadiazol-2-yl)-2,2,2-trifluoroethan-1-ol]: the figures for the “% Activation” value on CFTR ΔF508 mutant and at CFTR G551D mutant were 103.69% and 34.3%, respectively. The results for the EC50 on CFTR ΔF508 mutant, at CFTR ΔF508 and on CFTR G551D mutant were 1.8 nM, 6 nM and over 6770 nM, respectively.

Take `Nc1cc(S(=O)(=O)c2ccc(OC(F)(F)F)cc2)cnc1-c1nnc(CO)o1` [Compound 1, (5-{3-amino-5-[4-(trifluoromethoxy)benzene-1-sulfonyl]pyridin-2-yl}-1,3,4-oxadiazol-2-yl)methanol]: the “% Activation” value was 67.2% at CFTR-G178R; 113.82% on CFTR ΔF508 mutant; 88.7% at CFTR-R117H; 75.4% on CFTR-S549N; 72.8% at CFTR-G1349D; 37.7% on CFTR G551D mutant. The EC50 (commonly the concentration giving half of the maximal effect) is 196 nM at CFTR-G178R; 5.57 nM at CFTR ΔF508 mutant; 184 nM at CFTR-R117H; 40 nM at CFTR ΔF508; 275 nM on CFTR-S549N; 137 nM at CFTR-G1349D. The compound further gave an EC50 on CFTR G551D mutant of over 10000 nM.

The values above are taken from patent publication US10138227B2, “Heteroaryl substituted pyridines and methods of use” (AbbVie S.à.r.l., priority 2016, dated 2018).
